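48-hour exposure; five concentrations; linearly interpolated endpoints. GI50 marks 50% less growth.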 Calls of active or inactive are those of the source. No stated cut-off is given here; in the data, active = GI50 up to about 1.1 µM and inactive = higher.
How the values were obtained:
Experiment in all cases: NCI tumour cell line growth inhibition, 48 h
[1] = test system: U-251
[2] = test system: HCT-15
[3] = test system: TK-10
[4] = test system: EKVX
[5] = test system: RXF 393
[6] = test system: HT-29
[7] = test system: NCI-H226
[8] = test system: UACC-62
[9] = test system: M14
[10] = test system: HOP-62
[11] = test system: LOX IMVI
[12] = test system: NCI-H23
[13] = test system: SK-OV-3
[14] = test system: A498
[15] = test system: HCT-116
[16] = test system: SN12C
[17] = test system: NCI/ADR-RES
[18] = test system: COLO 205
[19] = test system: CCRF-CEM
[20] = test system: HCC 2998

| SMILES | GI50 [1] | GI50 [2] | GI50 [3] | GI50 [4] | GI50 [5] | GI50 [6] | GI50 [7] | GI50 [8] | GI50 [9] | GI50 [10] | GI50 [11] | GI50 [12] | GI50 [13] | GI50 [14] | GI50 [15] | GI50 [16] | GI50 [17] | GI50 [18] | GI50 [19] | GI50 [20] |
| --- | --- | --- | --- | --- | --- | --- | --- | --- | --- | --- | --- | --- | --- | --- | --- | --- | --- | --- | --- | --- |
| N#C/C(=C(\O)C(=O)O)c1ccc(-c2cccc3ccccc23)cc1 | > 100 µM (inactive) | > 100 µM | > 100 µM (inactive) | 59.4 µM (inactive) | > 100 µM (inactive) | > 100 µM (inactive) | > 100 µM (inactive) | > 100 µM (inactive) | > 100 µM (inactive) | > 100 µM (inactive) | > 100 µM (inactive) | > 100 µM (inactive) | > 100 µM (inactive) | > 100 µM (inactive) | > 100 µM (inactive) | > 100 µM (inactive) | > 100 µM (inactive) | > 100 µM (inactive) | 14.1 µM (inactive) |  |
| Cc1cc(Cc2cc(C)cc(C(C)(C)C)c2O)c(O)c(Cc2cc(C)cc(C(C)(C)C)c2O)c1 | 2.7 µM (inactive) | 2.24 µM | 3.03 µM (inactive) | 2.82 µM (inactive) | 2.82 µM (inactive) | 2.55 µM (inactive) | 3.24 µM (inactive) | 1.86 µM (inactive) | 2.64 µM (inactive) | 2.88 µM (inactive) | 3.1 µM (inactive) | 1.66 µM (inactive) | 3.33 µM (inactive) | 2.39 µM (inactive) | 1.92 µM (inactive) | 2.34 µM (inactive) | 2.85 µM (inactive) | 4.53 µM (inactive) | 1.73 µM (inactive) |  |
| O=C(c1ccccc1)N1CCC(CC2(c3cc4ccccc4[nH]3)OCCO2)CC1 | 34.8 µM (inactive) | 32.4 µM | 28.3 µM (inactive) | 66.2 µM (inactive) | 76 µM (inactive) | 26.5 µM (inactive) | 32.7 µM (inactive) | 19 µM (inactive) | 18.5 µM (inactive) | 58.1 µM (inactive) | 17.2 µM (inactive) | 42.3 µM (inactive) | 56.8 µM (inactive) | 21.4 µM (inactive) | 29.3 µM (inactive) | > 100 µM (inactive) | > 100 µM (inactive) | 21.2 µM (inactive) | 29.6 µM (inactive) |  |
| C1CC2CN(CCCN3CCOCC3)C(C1)O2 (stereo not given) | > 100 µM (inactive) | > 100 µM | > 100 µM (inactive) | > 100 µM (inactive) | > 100 µM (inactive) | > 100 µM (inactive) | > 100 µM (inactive) | > 100 µM (inactive) | > 100 µM (inactive) | > 100 µM (inactive) | > 100 µM (inactive) | > 100 µM (inactive) | > 100 µM (inactive) | > 100 µM (inactive) | > 100 µM (inactive) | > 100 µM (inactive) | > 100 µM (inactive) | > 100 µM (inactive) |  |  |
| CCOC(=O)c1ccc(NCC#CCN2CCOCC2)cc1 | > 100 µM (inactive) | 62.4 µM |  | 57.9 µM (inactive) | > 100 µM (inactive) | 69.2 µM (inactive) | 70.3 µM (inactive) | 34.8 µM (inactive) | 29.7 µM (inactive) | > 100 µM (inactive) | > 100 µM (inactive) | > 100 µM (inactive) | > 100 µM (inactive) | > 100 µM (inactive) | 53 µM (inactive) | > 100 µM (inactive) | > 100 µM (inactive) | 38 µM (inactive) | 60.1 µM (inactive) |  |
| CC(C(=O)c1ccccc1)C(c1ccccc1)N1CCOCC1 (stereo not given) | > 100 µM (inactive) | > 100 µM | > 100 µM (inactive) | > 100 µM (inactive) | > 100 µM (inactive) | > 100 µM (inactive) | > 100 µM (inactive) | > 100 µM (inactive) | > 100 µM (inactive) | > 100 µM (inactive) | > 100 µM (inactive) | > 100 µM (inactive) | > 100 µM (inactive) | > 100 µM (inactive) | > 100 µM (inactive) | > 100 µM (inactive) | > 100 µM (inactive) | > 100 µM (inactive) | 36.1 µM (inactive) |  |
| CC(C)(C)N1CC2(CCCCC2)C1=O | > 100 µM (inactive) | > 100 µM | > 100 µM (inactive) | > 100 µM (inactive) | > 100 µM (inactive) | > 100 µM (inactive) | > 100 µM (inactive) | > 100 µM (inactive) | > 100 µM (inactive) | > 100 µM (inactive) | > 100 µM (inactive) | > 100 µM (inactive) | > 100 µM (inactive) | > 100 µM (inactive) | > 100 µM (inactive) | > 100 µM (inactive) |  | > 100 µM (inactive) | > 100 µM (inactive) | > 100 µM (inactive) |
| CC(SCc1ccccc1)C(=O)O (stereo not given) | > 100 µM (inactive) | > 100 µM | > 100 µM (inactive) | > 100 µM (inactive) | > 100 µM (inactive) | > 100 µM (inactive) | > 100 µM (inactive) | > 100 µM (inactive) | > 100 µM (inactive) | > 100 µM (inactive) | > 100 µM (inactive) | > 100 µM (inactive) | > 100 µM (inactive) | > 100 µM (inactive) | > 100 µM (inactive) | > 100 µM (inactive) | > 100 µM (inactive) | > 100 µM (inactive) | > 100 µM (inactive) |  |
| C=C1CC2OC2(C(=O)O[C@H]2CCC3[C@@H]4CCC5=CC(=O)CC[C@]5(C)C4CC[C@@]32C)C1=O (stereo not given in full) | 8.97 µM (inactive) | 3.68 µM | 6.49 µM (inactive) | 25.5 µM (inactive) | 4.43 µM (inactive) | 8.34 µM (inactive) | 22.9 µM (inactive) | 14.6 µM (inactive) | 7.23 µM (inactive) | 21.4 µM (inactive) | 7.94 µM (inactive) | 9.53 µM (inactive) | 20 µM (inactive) | 13.6 µM (inactive) | 5.81 µM (inactive) | 6.52 µM (inactive) |  | 4.1 µM (inactive) | 0.804 µM (active) | 31.6 µM (inactive) |
| CCCc1cn2c(/C=N/NC(=N)N)c(-c3cccc([N+](=O)[O-])c3)nc2s1 | 1.86 µM (inactive) | 1.84 µM | 0.0405 µM (active) |  | 1.89 µM (inactive) | 2.06 µM (inactive) | 1.66 µM (inactive) | 1.61 µM (inactive) | 2.02 µM (inactive) | 1.78 µM (inactive) | 2.07 µM (inactive) | 1.78 µM (inactive) | 2.22 µM (inactive) | 17.3 µM (inactive) | 2.27 µM (inactive) | 1.21 µM (inactive) | 2.92 µM (inactive) | 1.88 µM (inactive) | 0.746 µM (active) |  |
| O=c1c2cc(S(=O)(=O)O)ccc2nc(COc2ccc(Oc3ccc(Cl)cc3Cl)cc2)n1-c1ccc(Oc2ccc(Cl)cc2)cc1Cl | 16 µM (inactive) | 19.9 µM | 22 µM (inactive) | 17.6 µM (inactive) | 0.0752 µM (active) | 18.7 µM (inactive) | 19.5 µM (inactive) | 17.4 µM (inactive) | 19.4 µM (inactive) | 21.4 µM (inactive) | 16.4 µM (inactive) | 21.7 µM (inactive) | 22.6 µM (inactive) | 23.3 µM (inactive) | 20.8 µM (inactive) | 17.7 µM (inactive) | 18.3 µM (inactive) | 17.9 µM (inactive) | 27.7 µM (inactive) |  |
| CCSc1nnc2c(-c3ccccc3)n[nH]c2n1 | > 100 µM (inactive) | > 100 µM | > 100 µM (inactive) | 16 µM (inactive) | > 100 µM (inactive) | > 100 µM (inactive) | > 100 µM (inactive) | > 100 µM (inactive) | > 100 µM (inactive) | 59.8 µM (inactive) | > 100 µM (inactive) | > 100 µM (inactive) | 44.3 µM (inactive) |  | > 100 µM (inactive) |  | > 100 µM (inactive) | > 100 µM (inactive) | 24.3 µM (inactive) |  |
| O=C(C(=O)c1ccc(Cc2ccc(C(=O)C(=O)c3ccccc3)cc2)cc1)c1ccccc1 | > 100 µM (inactive) | > 100 µM | > 100 µM (inactive) | > 100 µM (inactive) | > 100 µM (inactive) | > 100 µM (inactive) | > 100 µM (inactive) | > 100 µM (inactive) | > 100 µM (inactive) | > 100 µM (inactive) | > 100 µM (inactive) | > 100 µM (inactive) | > 100 µM (inactive) | > 100 µM (inactive) | > 100 µM (inactive) | > 100 µM (inactive) |  | > 100 µM (inactive) | 61.5 µM (inactive) | > 100 µM (inactive) |
| C=C[C@]1(C)CC(=O)C(C(C)C=O)[C@]12C(=O)Oc1cccc(C)c1C2=O (stereo not given in full) | 14.6 µM (inactive) | 14.9 µM | 14.8 µM (inactive) | 19.4 µM (inactive) | 13.9 µM (inactive) | 13.7 µM (inactive) | 15.3 µM (inactive) | 16.1 µM (inactive) | 16.3 µM (inactive) | 20.2 µM (inactive) | 14 µM (inactive) | 17.1 µM (inactive) | 16.6 µM (inactive) | 25.9 µM (inactive) | 7.85 µM (inactive) | 16.3 µM (inactive) |  | 17.3 µM (inactive) | 2.26 µM (inactive) | 17.7 µM (inactive) |
| CC(=O)O[C@H]1CC[C@@]2(C)C(CC[C@]3(C)C2CC[C@]2(C)Oc4c(C)cc(O)cc4C[C@@H]23)C1(C)C (stereo not given in full) | 2.71 µM (inactive) | 3.66 µM | 13.2 µM (inactive) | 19.5 µM (inactive) | 2.88 µM (inactive) | 11.2 µM (inactive) | 15.9 µM (inactive) | 8.59 µM (inactive) | 11.9 µM (inactive) | 10.8 µM (inactive) | 8.75 µM (inactive) | 6.56 µM (inactive) | 7.08 µM (inactive) | 12.7 µM (inactive) | 5.27 µM (inactive) | > 10 µM (inactive) |  | 14.5 µM (inactive) | 3.79 µM (inactive) | 7.6 µM (inactive) |

— ChEMBL document CHEMBL1201862, “PubChem BioAssay data set” (2004)
